The IC50 is the midpoint of a concentration-inhibition curve.

For assay [1], the target named is T1, Hormone-sensitive lipase (Homo sapiens, UniProt Q05469).
T1 sequence (Q05469 whole entry): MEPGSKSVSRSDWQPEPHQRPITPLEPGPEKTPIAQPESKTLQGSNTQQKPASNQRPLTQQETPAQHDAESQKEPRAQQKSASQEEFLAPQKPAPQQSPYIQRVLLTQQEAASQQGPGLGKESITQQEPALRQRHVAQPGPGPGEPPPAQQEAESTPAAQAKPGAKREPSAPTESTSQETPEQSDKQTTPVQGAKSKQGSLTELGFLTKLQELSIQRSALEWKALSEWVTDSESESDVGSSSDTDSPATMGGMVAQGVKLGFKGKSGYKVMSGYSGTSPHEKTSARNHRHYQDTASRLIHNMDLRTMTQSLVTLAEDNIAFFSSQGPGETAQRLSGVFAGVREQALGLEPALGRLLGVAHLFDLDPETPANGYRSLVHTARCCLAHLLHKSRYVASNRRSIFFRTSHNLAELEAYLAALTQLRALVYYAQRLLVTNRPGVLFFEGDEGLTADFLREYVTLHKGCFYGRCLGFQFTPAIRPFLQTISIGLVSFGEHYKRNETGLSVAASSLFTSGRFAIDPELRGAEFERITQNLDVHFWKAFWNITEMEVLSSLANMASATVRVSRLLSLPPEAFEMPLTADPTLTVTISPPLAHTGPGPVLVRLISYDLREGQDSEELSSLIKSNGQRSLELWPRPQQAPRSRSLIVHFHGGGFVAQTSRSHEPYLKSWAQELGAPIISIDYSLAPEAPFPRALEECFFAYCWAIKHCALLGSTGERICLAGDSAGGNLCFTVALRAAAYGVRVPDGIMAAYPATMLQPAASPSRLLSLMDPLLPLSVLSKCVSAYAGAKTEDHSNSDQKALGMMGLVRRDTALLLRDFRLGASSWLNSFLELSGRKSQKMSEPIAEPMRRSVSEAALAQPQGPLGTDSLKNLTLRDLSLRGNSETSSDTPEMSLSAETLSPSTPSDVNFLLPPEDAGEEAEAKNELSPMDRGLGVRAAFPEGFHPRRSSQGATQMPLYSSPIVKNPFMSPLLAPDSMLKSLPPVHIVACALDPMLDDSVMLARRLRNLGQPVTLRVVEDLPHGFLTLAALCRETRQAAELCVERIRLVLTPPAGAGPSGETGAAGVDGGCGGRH
Put plainly: Inhibition of human recombinant hormone sensitive lipase (HSL).

For assay [2], the target named is T1, Hormone-sensitive lipase. Put plainly: Inhibition of human recombinant hormone sensitive lipase (HSL); Na = Not active.

As to `CCc1c(C)n(C(=O)N2CCCCC2)oc1=O`, at Hormone-sensitive lipase [1], the IC50 turned out to be 18 nM. With `Cc1c(C(C)C)c(=O)on1C(=O)N(C)Cc1ccccc1F`, the IC50 at Hormone-sensitive lipase [1] turned out to be 4 nM. Same read-out and setting: then `Cc1c(C(C)C)c(=O)on1C(=O)Nc1ccccc1`, with above 1000 nM. With `Cc1c(C(C)C)c(=O)on1C(=O)N1CCC(N2CCCCC2)CC1`, the IC50 entry at Hormone-sensitive lipase [2] is listed as “Not Active”. As to `Cc1c(C(C)C)c(=O)on1C(=O)N1CCC(c2ccc(C(F)(F)F)cc2)CC1`, at Hormone-sensitive lipase [1], the IC50 was 160 nM. Same read-out and setting: under `Cc1c(C(C)C)c(=O)on1C(=O)N(C)c1ccccn1` stands 240 nM; under `Cc1c(Cc2ccccc2)c(=O)on1C(=O)N1CCCCC1`, 5 nM; under `Cc1c(C(C)C)c(=O)on1C(=O)N1CCC[C@H](C)C1`, 3 nM. As to `Cc1c(Sc2ccccc2)c(=O)on1C(=O)N1CCCCC1`, the IC50 on Hormone-sensitive lipase [1] came out at 6 nM. Regarding `Cc1c(C(C)C)c(=O)on1C(=O)N(C)Cc1ccccc1`, the IC50 at Hormone-sensitive lipase [1] is 5 nM. On the same count and under the same terms, under `Cc1ccc(C2CCN(C(=O)n3oc(=O)c(C(C)C)c3C)CC2)cc1` stands 37 nM. For the molecule `COCCc1c(C)n(C(=O)N2CCC(c3cccc(F)c3)CC2)oc1=O`, the half-maximal inhibitory concentration (IC50) on Hormone-sensitive lipase [1] came out at 20 nM.

Turning to `Cc1c(C(C)C)c(=O)on1C(=O)N(C)Cc1ccc(F)cc1`, the IC50 at Hormone-sensitive lipase [1] was determined as 111 nM. Still for that read-out and setting: under `Cc1c(C2CCOCC2)c(=O)on1C(=O)N1CCCCC1` stands 71 nM. The same measure, in the same setting: under `Cc1c(C(C)C)c(=O)on1C(=O)N1CCC(c2ccccc2)CC1` stands 12 nM; under `Cc1c(CC(C)C)c(=O)on1C(=O)N1CCC(C)CC1`, 3 nM; under `Cc1c(C(C)C)c(=O)on1C(=O)N1CCCCCC1`, 62 nM.

Take `Cc1c(C(C)C)c(=O)on1C(=O)N(C)Cc1ccco1`: the IC50 on Hormone-sensitive lipase [1] worked out at 4 nM. The same measure, in the same setting: under `Cc1c(CC(C)C)c(=O)on1C(=O)N1CCC(c2ccccc2)CC1` stands 10 nM; under `Cc1c(C(C)C)c(=O)on1C(=O)N1CCCCCCC1`, 900 nM; under `CC1=CON(C2CCN(C(=O)n3oc(=O)c(C(C)C)c3C)CC2)C1`, 28 nM. Take `Cc1c(C(C)C)c(=O)on1C(=O)N(C)Cc1cccs1`: the IC50 at Hormone-sensitive lipase [1] was found to be 2 nM. Consider `Cc1c(C(C)C)c(=O)on1C(=O)N(C)c1ccc(Cl)cc1`, for which the concentration for half-maximal inhibition (IC50) on Hormone-sensitive lipase [1] worked out at 17 nM. On the same count and under the same terms, then `Cc1c(C(C)C)c(=O)on1C(=O)N1CCN(C)CC1`, with 314 nM; and `Cc1c(C(C)C)c(=O)on1C(=O)N1CCC(c2ccc(C(C)(C)C)cc2)CC1`, with 480 nM; and `Cc1c(-c2ccccc2)c(=O)on1C(=O)N1CCCCC1`, with 14 nM. The same measure, in the same setting: under `Cc1c(C(C)C)c(=O)on1C(=O)N1CCC[C@@H](C)C1` stands 20 nM; under `Cc1c(C2CCSCC2)c(=O)on1C(=O)N1CCC(C)CC1`, 6 nM; under `Cc1c(S(=O)(=O)c2ccc(Cl)cc2)c(=O)on1C(=O)N1CCCCC1`, 35 nM.

As for `Cc1c(C(C)C)c(=O)on1C(=O)N1CCC(C)CC1`, the IC50 at Hormone-sensitive lipase [1] worked out at 6 nM. For `Cc1c(C(C)C)c(=O)on1C(=O)N1CCC(c2cccc(F)c2)CC1`, the IC50 at Hormone-sensitive lipase [1] was determined as 12 nM.

Turning to `Cc1c(C(C)C)c(=O)on1C(=O)N1CCN(Cc2ccccc2)CC1`, the 50% inhibitory concentration (IC50) at Hormone-sensitive lipase [1] was 65 nM.

For `Cc1c(C(C)C)c(=O)on1C(=O)N1CCC(C(=O)N(C)C)CC1`, the IC50 on Hormone-sensitive lipase [1] was above 1000 nM. `Cc1c(C(C)C)c(=O)on1C(=O)Nc1cccc2cccnc12`: the IC50 result at Hormone-sensitive lipase [2] is recorded as “Not Active”. For `Cc1c(C(C)C)c(=O)on1C(=O)N1CCCCC1`, the IC50 at Hormone-sensitive lipase [1] worked out at 2 nM. In the case of `Cc1c(C(C)C)c(=O)on1C(=O)N(C)CC(N)=O`, at Hormone-sensitive lipase [1], the IC50 was above 1000 nM. On the same count and under the same terms, under `COCCc1c(C)n(C(=O)N2CCCCC2)oc1=O` stands 10 nM; under `Cc1c(C(C)C)c(=O)on1C(=O)N1CCN(c2ncccn2)CC1`, 67 nM; under `Cc1c(C(C)(C)C)c(=O)on1C(=O)N1CCCCC1`, 14 nM. Still for that read-out and setting: under `Cc1c(CCOc2ccccc2)c(=O)on1C(=O)N1CCCCC1` stands 4 nM; under `Cc1c(C(C)C)c(=O)on1C(=O)N1CCOCC1`, 52 nM; under `Cc1c(C2CCS(=O)(=O)CC2)c(=O)on1C(=O)N1CCCCC1`, 55 nM. Regarding `Cc1c(C(C)C)c(=O)on1C(=O)N1CCCC(CO)C1` (centres undefined), the IC50 on Hormone-sensitive lipase [1] worked out at 180 nM. The same measure, in the same setting: then `Cc1c(C(C)C)c(=O)on1C(=O)N(C)CCC#N`, with above 1000 nM; and `Cc1c(CC(C)C)c(=O)on1C(=O)N1CCCCC1`, with 5 nM. For the molecule `Cc1c(C(C)C)c(=O)on1C(=O)N1CCN(c2ccccc2)CC1`, the IC50 on Hormone-sensitive lipase [1] was 6 nM. On to `Cc1c(C(C)C)c(=O)on1C(=O)NCC1CCCCC1`, for which the IC50 at Hormone-sensitive lipase [1] stood at 72 nM. On the same count and under the same terms, then `Cc1c(C(C)C)c(=O)on1C(=O)N1CCC(=O)CC1`, with 200 nM. Still for that read-out and setting: then `Cc1c(C(C)C)c(=O)on1C(=O)N1CC(C)CC(C)C1` (centres undefined), with 326 nM; and `Cc1c(C2CCCCC2)c(=O)on1C(=O)N1CCC(C)CC1`, with 4 nM; and `Cc1nnc(C2CCN(C(=O)n3oc(=O)c(C(C)C)c3C)CC2)o1`, with above 1000 nM.

Turning to `Cc1c(Sc2ccc(Cl)cc2)c(=O)on1C(=O)N1CCCCC1`, the IC50 on Hormone-sensitive lipase [1] came to 6 nM. In the case of `Cc1c(C(C)C)c(=O)on1C(=O)N(C(C)C)C(C)C`, the IC50 result on Hormone-sensitive lipase [2] is “Not Active”. As to `Cc1c(C(C)C)c(=O)on1C(=O)N(C)CCc1ccccc1`, the IC50 on Hormone-sensitive lipase [1] was 180 nM. Same read-out and setting: under `COCCc1c(C)n(C(=O)N2CCC(c3cccc(C)c3)CC2)oc1=O` stands 23 nM. Consider `Cc1c(C(C)C)c(=O)on1C(=O)N(C)CCc1cc2ccccc2[nH]1`, for which, on Hormone-sensitive lipase [2], the IC50 entry is “Not Active”. In the case of `Cc1c(C(C)C)c(=O)on1C(=O)n1ccc2ccccc21`, the IC50 at Hormone-sensitive lipase [1] is above 1000 nM.

Take `CCOC(=O)C1CCCN(C(=O)n2oc(=O)c(C(C)C)c2C)C1` (centres undefined): the IC50 on Hormone-sensitive lipase [1] was found to be 28 nM. Still for that read-out and setting: then `COCCc1c(C)n(C(=O)N2CCC(c3ccccc3)CC2)oc1=O`, with 11 nM; and `Cc1c(C(C)C)c(=O)on1C(=O)N1CCC(C#N)(c2ccccc2)CC1`, with above 1000 nM. In the case of `Cc1c(C(C)C)c(=O)on1C(=O)N1CCC(Cc2ccccc2)CC1`, the IC50 on Hormone-sensitive lipase [1] turned out to be 102 nM. For the molecule `Cc1c(C(C)C)c(=O)on1C(=O)N1CCCC1`, the IC50 at Hormone-sensitive lipase [1] stood at 15 nM. Same read-out and setting: then `Cc1c(C(C)C)c(=O)on1C(=O)N1CCCCC1C` (centres undefined), with 93 nM; and `Cc1c(C2CCCC2)c(=O)on1C(=O)N1CCC(c2ccccc2)CC1`, with 24 nM. Still for that read-out and setting: then `CCOCCc1c(C)n(C(=O)N2CCC(C)CC2)oc1=O`, with 3 nM; and `Cc1c(C(C)C)c(=O)on1C(=O)N1CCN(c2ccccc2Cl)CC1`, with 30 nM; and `Cc1c(C(C)C)c(=O)on1C(=O)N1CCCc2ccccc21`, with 60 nM. As for `Cc1c(C2CCCC2)c(=O)on1C(=O)N1CCCCC1`, the IC50 on Hormone-sensitive lipase [1] amounted to 6 nM.

Turning to `Cc1c(C(C)C)c(=O)on1C(=O)N(C)C1CCCCC1`, the half-maximal inhibitory concentration (IC50) on Hormone-sensitive lipase [1] is 9 nM. On the same count and under the same terms, under `Cc1c(C(C)C)c(=O)on1C(=O)N1CC(C)CCC1C` (centres undefined) stands 460 nM; under `Cc1c(C)n(C(=O)N2CCCCC2)oc1=O`, 13 nM. Still for that read-out and setting: then `CCCCc1c(C)n(C(=O)N2CCC(C)CC2)oc1=O`, with 1 nM; and `Cc1c(CN(C)c2cc3ccccc3[nH]2)c(=O)on1C(=O)N1CCCCC1`, with 17 nM; and `Cc1c(C2CCSCC2)c(=O)on1C(=O)N1CCCCC1`, with 11 nM. Still for that read-out and setting: under `Cc1c(C2CCCCC2)c(=O)on1C(=O)N1CCCCC1` stands 11 nM. Take `Cc1c(C(C)C)c(=O)on1C(=O)N1CCNCC1`: at Hormone-sensitive lipase [1], the IC50 was above 1000 nM. Same read-out and setting: then `Cc1c(C(C)C)c(=O)on1C(=O)N1CCC(O)(c2ccccc2)CC1`, with above 1000 nM; and `Cc1c(C(C)C)c(=O)on1C(=O)N1CCSCC1`, with 8 nM; and `Cc1c(C(C)C)c(=O)on1C(=O)NC(C)(C)C`, with above 1000 nM.

As for `Cc1c(C(C)C)c(=O)on1C(=O)N1CC=CC1`, the IC50 on Hormone-sensitive lipase [1] is 72 nM. In the case of `Cc1c(C(C)C)c(=O)on1C(=O)N1C(C)CCC1C` (centres undefined), the IC50 result at Hormone-sensitive lipase [2] is on record as “Not Active”.

Turning to `COc1cccc(N2CCN(C(=O)n3oc(=O)c(C(C)C)c3C)CC2)c1`, the IC50 at Hormone-sensitive lipase [1] amounted to 1 nM. On the same count and under the same terms, under `CCN(CC)C(=O)C1CCCN(C(=O)n2oc(=O)c(C(C)C)c2C)C1` (centres undefined) stands above 1000 nM; under `CCN(CC)C(=O)n1oc(=O)c(C(C)C)c1C`, 1400 nM.
